This is an account of results in the NIST ThermoML archive (doi:10.1021/acs.jced.7b01112).

Numbers after ± are expanded uncertainties.

Data set [1] in a line: Molar enthalpy of transition or fusion. To be noted: Crystal; DSC.
The conditions of data set [2]: Crystal; DTA.

For `O=C(O)c1ccc(C(=O)O)o1` [2,5-furandicarboxylic acid], the “Molar enthalpy of transition or fusion” value in data set [1] was determined as 13.2 ± 0.837 kcal/mol. Besides, the Normal melting temperature in data set [2] stood at 341.30 ± 0.7 °C.
